Results from PubChem BioAssay (NCI).
Values joined by “and” are separate entries in the source; they are usually repeats but may differ in a detail not shown here. Identical values can stand only once.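 Tested at 5 concentrations; 48 h exposure; 96-well plates; endpoints linearly interpolated, else capped at highest concentration. Here, GI50 denotes the concentration required for 50% inhibition of growth. TGI is the concentration that stops growth completely.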

These compounds were tested on MCF7 breast (assay: NCI-60 cell line screen, 48 h).
With `CS(=O)(=O)Nc1cc(-c2ccc3ncnc(Nc4cccc(Cl)c4)c3c2)cnc1Cl` the GI50 was 0.215 µM and the TGI was 13.6 µM.
With `COc1ccc2c(c1OC)O/C(=C\c1ncc([N+](=O)[O-])n1C)C2=O` the GI50 was 2.06 µM and the TGI was > 27.8 µM.
`CC1(C)N=C(N)N=C(N)N1c1cccc(CCc2ccccc2)c1` was tested, and the GI50 was 0.297 µM and the TGI was > 43 µM.
`O=C1Nc2ccc3c(c2/C1=C\c1cc2c(cc1Br)OCO2)OCO3` showed a GI50 of 0.351 µM and a TGI of 2.87 µM.
For `COc1cc2cc(Oc3cccc(NC(=O)Nc4cc(C(F)(F)F)cc(C(F)(F)F)c4)c3)c(C)nc2cc1OC`, the GI50 was 0.544 µM and the TGI was 2.36 µM.
`COc1cc2ncnc(Oc3cccc(NC(=O)Nc4cc(C(C)(C)C(F)(F)F)on4)c3)c2cc1OC` was tested, and the GI50 was 2.79 µM and 3.18 µM and the TGI was 15 µM and > 10 µM.
In the case of `COc1ccc(/C=C/C(=O)c2cc3c(N)c(C(=O)Nc4ccc(OC)cc4)sc3nc2C)cc1`, the GI50 is reported as 0.0644 µM and the TGI is reported as > 50 µM.
For `CCOC(=O)[C@@H]1CSC(CC)=C(C(=O)O)N1`, the GI50 was > 100 µM and the TGI was > 100 µM.
`COc1cc(NC2CCCCC2O)c2nc(-c3ccc(Cl)cc3)ccc2c1` (centres undefined) was tested, and the GI50 was 0.358 µM and the TGI was 35.5 µM.
With `Nn1c(-c2ccc(Cl)cc2)nc2c(-c3ccc(Cl)cc3)nc3ccc(Cl)cc3c2c1=O` the GI50 was 4.1 µM and the TGI was > 100 µM.
In the case of `COc1ccc(-c2csc(Nc3cccc(-c4csc(C)n4)c3)n2)cc1`, the GI50 is reported as 0.31 µM and the TGI is reported as > 50 µM.
Compound `COc1cc(/C=C2\SC(N3CCCCC3)=NC2=O)ccc1OCCCCCCOc1ccc(/C=C2\SC(N3CCCCC3)=NC2=O)cc1OC` has a GI50 of 15.1 µM and a TGI of 44.9 µM.
`COc1cc2c3cc1Oc1c(OC)c(OC)cc4c1C(Cc1ccc(O)c(c1)Oc1ccc(cc1)CC3N(C)CC2)N(C)CC4` (centres undefined) was tested, and the GI50 was 11.5 µM and the TGI was > 100 µM and 66.8 µM.
`C[As](C)SC1OCC(O)C(O)C1O` (centres undefined) gave a GI50 of 0.173 µM and a TGI of 1.29 µM.
For `COc1cc2c3c(n(CCCNCCCNCCCN)c(=O)c2cc1OC)-c1cc2c(cc1C3=O)OCO2`, the GI50 was > 100 µM and the TGI was > 100 µM.
`CCOC1Oc2ccc(C)cc2C(=O)/C1=C\Nc1ccc(S(N)(=O)=O)cc1` (centres undefined) was tested, and the GI50 was 15.9 µM and the TGI was > 50 µM.
With `Cc1nc2ccccc2c(=O)n1/N=C(\N=Nc1cc(Cl)ccc1Cl)c1ccccc1` the TGI was > 100 µM.
With `O=c1[nH]cnc2n[nH]nc12` the GI50 was 24 µM and the TGI was > 100 µM.
`CC1(C)C2CCC13C(=O)C1OC3(C2)C2C(=O)c3c(ccc4c3ccc3ccccc34)C(=O)C12` (centres undefined) was tested, and the GI50 was 31.6 µM and the TGI was > 75.9 µM.

Each compound was assayed on MDA-MB-435 (assay: NCI-60 cell line screen, 48 h).
Compound `CS(=O)(=O)Nc1cc(-c2ccc3ncnc(Nc4cccc(Cl)c4)c3c2)cnc1Cl` has a GI50 of 0.418 µM and a TGI of 2.67 µM.
With `COc1ccc2c(c1OC)O/C(=C\c1ncc([N+](=O)[O-])n1C)C2=O` the GI50 was 0.277 µM and the TGI was 1.11 µM.
`CC1(C)N=C(N)N=C(N)N1c1cccc(CCc2ccccc2)c1` showed a GI50 of 0.154 µM and a TGI of 35.4 µM.
Work on `O=C1Nc2ccc3c(c2/C1=C\c1cc2c(cc1Br)OCO2)OCO3` yielded a GI50 of 0.106 µM and a TGI of 0.305 µM.
In the case of `COc1cc2cc(Oc3cccc(NC(=O)Nc4cc(C(F)(F)F)cc(C(F)(F)F)c4)c3)c(C)nc2cc1OC`, the GI50 is reported as 1.8 µM and the TGI is reported as 4.28 µM.
`COc1cc2ncnc(Oc3cccc(NC(=O)Nc4cc(C(C)(C)C(F)(F)F)on4)c3)c2cc1OC` was tested, and the GI50 was 0.335 µM and 0.484 µM and the TGI was 5.74 µM and > 10 µM.
Work on `COc1ccc(/C=C/C(=O)c2cc3c(N)c(C(=O)Nc4ccc(OC)cc4)sc3nc2C)cc1` yielded a GI50 of 0.0189 µM and a TGI of 0.0777 µM.
For `CCOC(=O)[C@@H]1CSC(CC)=C(C(=O)O)N1`, the GI50 was > 100 µM and the TGI was > 100 µM.
`COc1cc(NC2CCCCC2O)c2nc(-c3ccc(Cl)cc3)ccc2c1` (centres undefined) was tested, and the GI50 was 4.22 µM and the TGI was 16.6 µM.
For `Nn1c(-c2ccc(Cl)cc2)nc2c(-c3ccc(Cl)cc3)nc3ccc(Cl)cc3c2c1=O`, the GI50 was > 100 µM and the TGI was > 100 µM.
Compound `COc1ccc(-c2csc(Nc3cccc(-c4csc(C)n4)c3)n2)cc1` has a GI50 of 0.366 µM and a TGI of 1.02 µM.
Work on `COc1cc(/C=C2\SC(N3CCCCC3)=NC2=O)ccc1OCCCCCCOc1ccc(/C=C2\SC(N3CCCCC3)=NC2=O)cc1OC` yielded a GI50 of 10.8 µM and a TGI of 79.1 µM.
For `COc1cc2c3cc1Oc1c(OC)c(OC)cc4c1C(Cc1ccc(O)c(c1)Oc1ccc(cc1)CC3N(C)CC2)N(C)CC4` (centres undefined), the GI50 was 6.7 µM and the TGI was 19.8 µM.
`C[As](C)SC1OCC(O)C(O)C1O` (centres undefined) gave a GI50 of 0.13 µM and a TGI of 1.32 µM.
`COc1cc2c3c(n(CCCNCCCNCCCN)c(=O)c2cc1OC)-c1cc2c(cc1C3=O)OCO2` was tested, and the GI50 was 68.4 µM and the TGI was > 100 µM.
In the case of `CCOC1Oc2ccc(C)cc2C(=O)/C1=C\Nc1ccc(S(N)(=O)=O)cc1` (centres undefined), the GI50 is reported as 10 µM and the TGI is reported as 23.8 µM.
Compound `Cc1nc2ccccc2c(=O)n1/N=C(\N=Nc1cc(Cl)ccc1Cl)c1ccccc1` has a TGI of 44.1 µM.
In the case of `O=c1[nH]cnc2n[nH]nc12`, the GI50 is reported as 0.448 µM and the TGI is reported as > 100 µM.
In the case of `CC1(C)C2CCC13C(=O)C1OC3(C2)C2C(=O)c3c(ccc4c3ccc3ccccc34)C(=O)C12` (centres undefined), the GI50 is reported as > 62.2 µM and the TGI is reported as > 100 µM.

These compounds were tested on MOLT-4 leukemia (assay: NCI-60 cell line screen, 48 h).
In the case of `CS(=O)(=O)Nc1cc(-c2ccc3ncnc(Nc4cccc(Cl)c4)c3c2)cnc1Cl`, the GI50 is reported as 0.235 µM and the TGI is reported as 1.17 µM.
`COc1ccc2c(c1OC)O/C(=C\c1ncc([N+](=O)[O-])n1C)C2=O` showed a GI50 of 0.266 µM.
In the case of `CC1(C)N=C(N)N=C(N)N1c1cccc(CCc2ccccc2)c1`, the GI50 is reported as 0.599 µM and the TGI is reported as > 89.2 µM.
`O=C1Nc2ccc3c(c2/C1=C\c1cc2c(cc1Br)OCO2)OCO3` was tested, and the GI50 was 0.489 µM and the TGI was > 100 µM.
Work on `COc1cc2cc(Oc3cccc(NC(=O)Nc4cc(C(F)(F)F)cc(C(F)(F)F)c4)c3)c(C)nc2cc1OC` yielded a GI50 of 1.13 µM and a TGI of 4.04 µM.
In the case of `COc1cc2ncnc(Oc3cccc(NC(=O)Nc4cc(C(C)(C)C(F)(F)F)on4)c3)c2cc1OC`, the GI50 is reported as 2.46 µM and 2.06 µM and the TGI is reported as > 29.7 µM.
With `COc1ccc(/C=C/C(=O)c2cc3c(N)c(C(=O)Nc4ccc(OC)cc4)sc3nc2C)cc1` the GI50 was 0.697 µM and the TGI was > 50 µM.
For `CCOC(=O)[C@@H]1CSC(CC)=C(C(=O)O)N1`, the GI50 was > 100 µM and the TGI was > 100 µM.
